{"source": "patent US11103488B2", "about": "“Methods of treating autoimmune, respiratory and inflammatory disorders by inhalation of roflumilast N-oxide” (Incozen Therapeutics Pvt. Ltd., priority 2013, dated 2021)", "key": {"[1]": {"assay": "7-day repeat dose safety study", "type": "in vivo, Wistar Rats", "description": "(§1) In order to determine the safety of roflumilast N-oxide by inhalation compared to roflumilast by oral administration, a 7- and 14-day repeat dose safety study was conducted according to the protocol given in Table 5 below."}, "[2]": {"assay": "Lung microsome metabolic stability, rat", "type": "in vitro ADME", "details": "rat lung microsomes, 1 μM test item, 60 minutes, NADPH", "description": "Metabolic stability studies were conducted using rat, dog and human lung microsomes. The protocol for the studies with rat, dog, and human lung microsomes (from Xenotech, USA) is provided below.\n0.4 mg protein was preincubated with 2 mM NADPH (cofactor) in phosphate buffer (pH˜7.4) for 15 minutes at […] and then added with 1 μM test item and incubated further for 60 minutes in triplicate. The reaction mixture was terminated with methanol containing an internal standard and centrifuged further to analyze the test item remaining in the supernatant by LC-MS/MS. The percent parent compound remaining was calculated in comparison with similar samples terminated at 0 minutes."}, "[3]": {"assay": "14-day repeat dose safety study", "type": "in vivo, Wistar Rats", "details": "Intratracheal, 1000 ug/kg/day, 14 days", "description": "as §1"}, "[4]": {"assay": "Pulmonary kinetics by intratracheal route, multiple dose (7 days)", "type": "in vivo, Wistar rats", "details": "1 mg/kg IT for 7 days; for Tmax / half-life / AUC(0-inf) / AUC(0-t) / Cmax: 1 mg/kg", "description": "(§2) Male and female Wistar rats were weighed and randomized for groups for various time points. Roflumilast N-oxide was prepared as a suspension in a suitable vehicle for intratracheal administration. For intratracheal dosing, animals were anesthetized with ketamine (50 mg/kg; i.p.) and roflumilast N-oxide was administered via an Intratracheal Microsprayer® Aerosolizer for Rat with a 0.5 ml glass syringe (Model IA-1B-R-GL500) (Penn Century, US). A volume level of 0.5 ml/kg was administered into the airway system of the rat at a dose of 1.0 mg/kg for the single dose and multiple dose study. The animals were kept under normal regular diet conditions and rat chew diet was provided ad libitum throughout the study. The blood and lung samples (all collections each of 150 μl from each animal) were collected according to the sampling schedule. Blood samples were collected from orbital sinus into the microfuge tubes containing dipotassium EDTA as an anticoagulant. Blood samples were centrifuged immediately with a speed of 1000 g for 10 minutes at 4° C. and separated plasma samples were frozen at below −80° C. and stored until analysis. The plasma and lung concentrations of roflumilast N-oxide in all samples were analyzed by LC-MS/MS (using X-Calibur 2.0.7 software) as per the established method. The samples below the lower limit of quantification (LOQ) were mentioned as (BLQ) below level of quantification in raw data and the results were tabulated accordingly. Pharmacokinetic parameters Cmax, AUC0-t, AUC0-∞, Tmax, t1/2, Kel, VZ, and CLZ were estimated for the above concentrations using WinNonlin (Phoenix 6.1 software) and the results were tabulated. Pharmacokinetic parameters in plasma were calculated from concentration data as ng/ml. Cmax and AUC values were reported in terms of ng/ml and ng·h/ml, respectively.\n(§3) Pharmacokinetic parameters in the lungs were calculated from concentration data as ng/g. Cmax and AUC values were reported in terms of ng/g and ng·h/g, respectively. The lung to plasma concentration ratio was calculated by assuming equal to 1 the plasma density. The time-mean plasma concentration plots for roflumilast N-oxide were done using Graph pad Prism 5.02 software."}, "[5]": {"system": "neutrophil infiltration (LPS-induced neutrophilia in BALF)", "assay": "Lipopolysaccharide (LPS) induced pulmonary neutrophilia", "type": "in vivo, female Sprague-Dawley rat", "details": "for ED50: Rattus norvegicus, Neutrophil, inhaled or nasal; for Percent inhibition in neutrophil infiltration: intratracheal dry powder, 30 minutes before LPS", "description": "Roflumilast was prepared as a suspension in a suitable vehicle for oral administration. For intratracheal administration, roflumilast or roflumilast N-oxide was prepared as a dry powder mixture and administered by using a dry powder Insufflator (Penn-Century, USA) Animals were anaesthetized with ketamine and LPS solution was administered intratracheally one hour after roflumilast (at a dose of 0.3, 1, 3, and 10 mg/kg orally), or 30 minutes after roflumilast (at a dose of 10, 30 and 100 μg/kg i.t) or roflumilast N-oxide administration (at a dose of 10, 30 and 100 μg/kg, i.t). 6 hours after LPS instillation, animals were exsanguinated under anaesthesia, and then trachea were cannulated and the lungs were lavaged with 5-ml aliquots of heparinised PBS (1 unit/ml) four times through tracheal cannula (total volume 20 ml). BAL (bronchoalveolar lavage) fluid was stored at 2-8° C. until assayed for total cell and differential leukocyte count. Bronchioalveolar fluid was centrifuged (500×g for 10 minutes) and the resulting cell pellet was resuspended in 0.5 ml of heparinized saline. The total number of white blood cells were determined in BAL fluid using a blood cell counter and were adjusted to 1×10^6 cell/ml. Differential cell count was calculated manually. One hundred microliters of the cell suspension was centrifuged using cytospin 3 to prepare a cell smear. The cell smear was stained with a blood staining solution for differentiation and slides were microscopically observed to identify eosinophil according to their morphological characteristics. The number of each cell type among 300 white blood cells in the cell smear was determined and expressed as a percentage. The total number of neutrophils in each BAL fluid was calculated.\nRoflumilast and roflumilast N-oxide were administered intratracheally (i.t) at doses of 100, 30, and 10 μg/kg as 1:200; 1:500; and 1:1000 drug:lactose blends, respectively."}, "[6]": {"assay": "Pulmonary kinetics by intratracheal route, single dose", "type": "in vivo, Wistar rats", "details": "single dose 1 mg/kg IT", "description": "as §2, §3"}}, "note": "Like-named read-outs stand apart in the source and are kept apart here.", "data": [{"compound": "O=C(Nc1c(Cl)c[n+]([O-])cc1Cl)c1ccc(OC(F)F)c(OCC2CC2)c1", "note": "[Roflumilast N-oxide]", "values": [{"measurement": "MORTALITY", "setting": "[1]; Intratracheal, 1000 ug/kg/day, 7 days", "result": "No Mortality"}, {"measurement": "Therapeutic window (safe dose relative to ED50)", "setting": "[1]; intratracheal 1000 μg/kg versus ED50 of 27 μg/kg", "result": "more than 37 fold"}, {"measurement": "Overall safety in repeat dose study", "setting": "[1]; intratracheal administration, 1000 μg/kg", "result": "found to be safe"}, {"measurement": "Percent Parent Compound Remaining, Rat", "setting": "[2]", "result": 100.0, "unit": "%"}, {"measurement": "MORTALITY", "setting": "[3]", "result": "No Mortality"}, {"measurement": "AUC0-inf, Lung, Day-1, N-Oxide", "setting": "[4]; lung, Day-1", "result": 47.96, "unit": "µg·h/g"}, {"measurement": "AUC0-t, Lung, Day-1, N-Oxide", "setting": "[4]; lung, Day-1", "result": 47.88, "unit": "µg·h/g"}, {"measurement": "Cmax, Lung, Day-1, N-Oxide", "setting": "[4]; lung, Day-1", "result": 26.35, "unit": "µg/g"}, {"measurement": "AUC0-inf, Lung, Day-7, N-Oxide", "setting": "[4]; lung, Day-7", "result": 18.04, "unit": "µg·h/g"}, {"measurement": "AUC0-t, Lung, Day-7, N-Oxide", "setting": "[4]; lung, Day-7", "result": 17.96, "unit": "µg·h/g"}, {"measurement": "AUCtau, Lung, Day-7, N-Oxide", "setting": "[4]; lung, Day-7", "result": 18.51, "unit": "µg·h/g"}, {"measurement": "Cavg, Lung, Day-7, N-Oxide", "setting": "[4]; lung, Day-7", "result": 0.77, "unit": "µg/g"}, {"measurement": "Cmax, Lung, Day-7, N-Oxide", "setting": "[4]; lung, Day-7", "result": 23.15, "unit": "µg/g"}, {"measurement": "Cmin, Lung, Day-7, N-Oxide", "setting": "[4]; lung, Day-7", "result": 0.00, "unit": "µg/g"}, {"measurement": "Cavg, Plasma, Day-7, N-Oxide", "setting": "[4]; plasma, Day-7", "result": 120, "unit": "ng/mL"}, {"measurement": "Cmin, Plasma, Day-7, N-Oxide", "setting": "[4]; plasma, Day-7", "result": 0, "unit": "ng/mL"}, {"measurement": "AUC", "setting": "[4]; both sexes, Wistar, rat, inhaled or intranasal, plasma, Day-7, read-out: AUCtau, Plasma, Day-7, N-Oxide", "result": 2810, "unit": "ng·h/mL"}, {"measurement": "Tmax", "setting": "[4]; both sexes, Wistar, rat, lung, inhaled or intranasal, lung, Day-1, read-out: Tmax, Lung, Day-1, N-Oxide", "result": 15, "unit": "min"}, {"measurement": "half-life", "setting": "[4]; both sexes, Wistar, rat, lung, inhaled or intranasal, lung, Day-1, read-out: t1/2, Lung, Day-1, N-Oxide (converted)", "result": 152, "unit": "min"}, {"measurement": "Tmax", "setting": "[4]; both sexes, Wistar, rat, lung, inhaled or intranasal, lung, Day-7, read-out: Tmax, Lung, Day-7, N-Oxide", "result": 15, "unit": "min"}, {"measurement": "half-life", "setting": "[4]; both sexes, Wistar, rat, lung, inhaled or intranasal, lung, Day-7, read-out: t1/2, Lung, Day-7, N-Oxide (converted)", "result": 48.6, "unit": "min"}, {"measurement": "AUC(0-inf)", "setting": "[4]; both sexes, Wistar, rat, plasma, inhaled or intranasal, plasma, Day-1, read-out: AUC0-inf, Plasma, Day-1, N-Oxide", "result": 4350, "unit": "ng·h/mL"}, {"measurement": "AUC(0-t)", "setting": "[4]; both sexes, Wistar, rat, plasma, inhaled or intranasal, plasma, Day-1, read-out: AUC0-t, Plasma, Day-1, N-Oxide", "result": 4160, "unit": "ng·h/mL"}, {"measurement": "Cmax", "setting": "[4]; both sexes, Wistar, rat, plasma, inhaled or intranasal, plasma, Day-1, read-out: Cmax, Plasma, Day-1, N-Oxide", "result": 530, "unit": "ng/mL"}, {"measurement": "Tmax", "setting": "[4]; both sexes, Wistar, rat, plasma, inhaled or intranasal, plasma, Day-1, read-out: Tmax, Plasma, Day-1, N-Oxide", "result": 15, "unit": "min"}, {"measurement": "half-life", "setting": "[4]; both sexes, Wistar, rat, plasma, inhaled or intranasal, plasma, Day-1, read-out: t1/2, Plasma, Day-1, N-Oxide (converted)", "result": 326, "unit": "min"}, {"measurement": "AUC(0-inf)", "setting": "[4]; both sexes, Wistar, rat, plasma, inhaled or intranasal, plasma, Day-7, read-out: AUC0-inf, Plasma, Day-7, N-Oxide", "result": 2390, "unit": "ng·h/mL"}, {"measurement": "AUC(0-t)", "setting": "[4]; both sexes, Wistar, rat, plasma, inhaled or intranasal, plasma, Day-7, read-out: AUC0-t, Plasma, Day-7, N-Oxide", "result": 2250, "unit": "ng·h/mL"}, {"measurement": "Cmax", "setting": "[4]; both sexes, Wistar, rat, plasma, inhaled or intranasal, plasma, Day-7, read-out: Cmax, Plasma, Day-7, N-Oxide", "result": 560, "unit": "ng/mL"}, {"measurement": "Tmax", "setting": "[4]; both sexes, Wistar, rat, plasma, inhaled or intranasal, plasma, Day-7, read-out: Tmax, Plasma, Day-7, N-Oxide", "result": 60, "unit": "min"}, {"measurement": "half-life", "setting": "[4]; both sexes, Wistar, rat, plasma, inhaled or intranasal, plasma, Day-7, read-out: t1/2, Plasma, Day-7, N-Oxide (converted)", "result": 91.8, "unit": "min"}, {"measurement": "ED50", "setting": "[5]; Intratracheal (Table 5), read-out: ED50 in Lipopolysaccharide induced pulmonary neutrophilia in female Sprague-Dawley rat model", "result": 0.027, "unit": "mg/kg"}, {"measurement": "ED50", "setting": "[5]; intratracheal administration, read-out: 50% inhibition (ED50) dose, neutrophil infiltration", "result": 0.027, "unit": "mg/kg"}, {"measurement": "Percent inhibition in neutrophil infiltration", "setting": "[5]; 10 μg/kg", "result": 37.52, "unit": "%"}, {"measurement": "Percent inhibition in neutrophil infiltration", "setting": "[5]; 30 μg/kg", "result": 49.66, "unit": "%"}, {"measurement": "Percent inhibition in neutrophil infiltration", "setting": "[5]; 100 μg/kg", "result": 69.48, "unit": "%"}, {"measurement": "Tmax", "setting": "[6]; both sexes, Wistar, rat, inhaled or intranasal, lung, read-out: Tmax, Lung, N-Oxide", "result": 15, "unit": "min"}, {"measurement": "half-life", "setting": "[6]; both sexes, Wistar, rat, inhaled or intranasal, lung, read-out: t1/2, Lung, N-Oxide (converted)", "result": 152, "unit": "min"}, {"measurement": "AUC(0-t)", "setting": "[6]; both sexes, Wistar, rat, inhaled or intranasal, plasma, read-out: AUC0-t, Plasma, N-Oxide", "result": 4160, "unit": "ng·h/mL"}, {"measurement": "Cmax", "setting": "[6]; both sexes, Wistar, rat, inhaled or intranasal, plasma, read-out: Cmax, Plasma, N-Oxide", "result": 530, "unit": "ng/mL"}, {"measurement": "Tmax", "setting": "[6]; both sexes, Wistar, rat, inhaled or intranasal, plasma, read-out: Tmax, Plasma, N-Oxide", "result": 15, "unit": "min"}, {"measurement": "half-life", "setting": "[6]; both sexes, Wistar, rat, inhaled or intranasal, plasma, read-out: t1/2, Plasma, N-Oxide (converted)", "result": 326, "unit": "min"}, {"measurement": "AUC0-inf, Lung, N-Oxide", "setting": "[6]; lung", "result": 47960, "unit": "ng·h/g"}, {"measurement": "AUC0-t, Lung, N-Oxide", "setting": "[6]; lung", "result": 47880, "unit": "ng·h/g"}, {"measurement": "Cmax, Lung, N-Oxide", "setting": "[6]; lung", "result": 26350, "unit": "ng/g"}]}]}
